Results: US8093396B2, “Benzthiazole inhibitors of poly(ADP-ribose)polymerase” (Abbott Laboratories, priority 2009, dated 2012)

Target: PARP-1 (Homo sapiens, UniProt P09874)
Test: Inhibition of PARP by Compounds Having Formula I
Format: biochemical

Chain of PARP-1 (P09874 whole entry, species assumed): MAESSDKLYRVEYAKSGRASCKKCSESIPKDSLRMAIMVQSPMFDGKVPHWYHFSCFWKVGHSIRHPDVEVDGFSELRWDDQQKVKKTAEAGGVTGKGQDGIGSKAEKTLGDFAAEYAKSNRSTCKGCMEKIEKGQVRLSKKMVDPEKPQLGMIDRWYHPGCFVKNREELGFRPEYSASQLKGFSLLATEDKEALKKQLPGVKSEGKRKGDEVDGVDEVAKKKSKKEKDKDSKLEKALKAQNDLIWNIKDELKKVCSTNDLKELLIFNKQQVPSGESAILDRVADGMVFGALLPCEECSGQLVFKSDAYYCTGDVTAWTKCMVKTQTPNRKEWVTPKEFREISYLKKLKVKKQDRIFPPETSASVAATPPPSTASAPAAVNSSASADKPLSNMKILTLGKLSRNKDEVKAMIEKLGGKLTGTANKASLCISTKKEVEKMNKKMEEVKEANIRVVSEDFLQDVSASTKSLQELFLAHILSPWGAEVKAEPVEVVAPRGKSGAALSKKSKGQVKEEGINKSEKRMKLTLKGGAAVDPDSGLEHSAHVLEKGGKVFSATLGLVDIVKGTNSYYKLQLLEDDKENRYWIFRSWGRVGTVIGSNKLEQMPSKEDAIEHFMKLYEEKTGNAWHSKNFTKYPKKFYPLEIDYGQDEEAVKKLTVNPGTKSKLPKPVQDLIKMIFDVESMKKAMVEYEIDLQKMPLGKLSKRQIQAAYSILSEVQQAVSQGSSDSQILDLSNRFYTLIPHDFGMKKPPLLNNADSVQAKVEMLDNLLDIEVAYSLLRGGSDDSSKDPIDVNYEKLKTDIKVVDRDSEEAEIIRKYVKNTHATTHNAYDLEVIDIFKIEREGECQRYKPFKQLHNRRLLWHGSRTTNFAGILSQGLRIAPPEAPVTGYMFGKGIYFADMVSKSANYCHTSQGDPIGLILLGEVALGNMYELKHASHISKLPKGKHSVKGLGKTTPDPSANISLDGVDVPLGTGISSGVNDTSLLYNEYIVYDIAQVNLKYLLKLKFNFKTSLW

| Ki | SMILES |
| --- | --- |
| 45 nM | NC(=O)c1cccc2sc(-c3ccc(OS(=O)(=O)C(F)(F)F)cc3)nc12 [Example 1, 4-[4-(aminocarbonyl)-1,3-benzothiazol-2-yl]phenyl trifluoromethanesulfonate] |
| 316 nM | NC(=O)c1cccc2sc(-c3ccc(-c4ccccc4)cc3)nc12 [Example 2, 2-(1,1′-biphenyl-4-yl)-1,3-benzothiazole-4-carboxamide] |
| 9.5 nM | NC(=O)c1cccc2sc(-c3ccc(-c4cccnc4)cc3)nc12 [Example 3, 2-(4-pyridin-3-ylphenyl)-1,3-benzothiazole-4-carboxamide] |
| 26 nM | NC(=O)c1cccc2sc(-c3ccc(-c4ccncc4)cc3)nc12 [Example 4, 2-(4-pyridin-4-ylphenyl)-1,3-benzothiazole-4-carboxamide] |
